# Results taken from patent US20020041848A1, “Chemically Specific Imaging Of Tissue” (priority 1999, published 2002).
# Assays:
# [1] = test system: human finger tip; details: in vivo, 5 min
# Description: Raman spectra were collected from a human finger tip irradiated with a near-infrared laser beam using conventional equipment, including a light collection and analysis system. Test agents were applied to the finger tip and allowed to penetrate the tissue for 5 minutes before rinsing the finger tip with acetone.
# [2] = test system: lab rats; details: cited from earlier work
SMILES,depth of penetration indicated by persistence of peak near 2200 cm^-1 [1],"symptoms at about double the 10-15% body water replacement ([2]; lab rats, continuous regimen of D2O)","share of total body water weight replaced by D2O below which there are no signs of ingestion or poisoning ([2]; rat, in vivo)"
[2H]C([2H])([2H])C([2H])([2H])C([2H])([2H])C([2H])([2H])C([2H])([2H])C([2H])([2H])C([2H])([2H])C([2H])([2H])C([2H])([2H])C([2H])([2H])C([2H])([2H])C([2H])([2H])C([2H])([2H])C([2H])([2H])C([2H])([2H])C([2H])([2H])C([2H])([2H])C(=O)O [stearic acid-d35],1-2 mm,–,–
[2H]O[2H] [D2O],–,severe,10-15%
